Laboratory results reported in article PMC7440915, “Discovery of surrogate agonists for visceral fat Treg cells that modulate metabolic indices in vivo” (eLife, 2020).
Where no end group is shown, it is not given here.

Tested on: vTreg53 Treg cells
Assay: Expansion of transferred vTreg53 Treg cells in Spl/LN or VAT after prime and boost
Assay type: in vivo, mouse
Settings: compared with adjuvant alone, CFA s.c. then IFA i.p.
Text: Figure 4. SPs induce proliferation and activation of vTreg53 Treg cells in vitro and in vivo. (A–D) Proliferation and activation of vTreg53 Treg cells by different concentrations of SPs for 3 days in vitro (n = 3). (A) Representative flow cytometric plot of cell division. (B) Summary of cell proliferation. (C) Mean flourescence intensity (MFI) of CD44 staining in clonotype^+ Treg cells. (D) MFI of CD62L staining in clonotype^+ Treg cells. (E) Proliferation of transferred CD45.2^+ vTreg53 Treg cells in the spleen of CD45.1^+ B6 recipient mice immunized s.c. with CFA or CFA/Fat1562 at day 3 (n = 3). […]
To assess early Treg proliferation following peptide stimulation in vivo, 0.4 million Treg cells were sorted from pooled Spl and LNs of 6-8wk-old male CD45.2^+ Tg^+ Foxp3-GFP^KI/y mice by Moflo, labeled by the CellTrace Violet dye (ThermoFisher Scientific), and were i.v.-injected into 6-8wk old male B6.CD45.1^+ mice. […] Proliferation of clonotype^+ Tregs in the spleen was determined three days later. […] Six weeks later, the recipient mice were immunized with 200 µg CFA/peptides s.c. on the lower back, and one week later were boosted with 100 μg IFA/peptides i.p. After another week, clonotype^+ CD45.2^+ Treg cells from the Spl/LNs or VAT of recipient mice were analyzed by flow cytometry and double-sorted for ultra-low-input RNA-seq. […]

TMYKNPRPMAATG [Fat1562]
expansion of clonotype^+ Treg cells in VAT: > 25 fold
